According to the supplement of paper PMC10307832:

What was measured:
Experiment in all cases: relative viability (nuclei count vs DMSO), 5 days (fraction); higher = more cells survive
Nelarabine + AZD7762 = compound: COc1nc(N)nc2c1ncn2[C@@H]1O[C@H](CO)[C@@H](O)[C@@H]1O [Nelarabine] + NC(=O)Nc1cc(-c2cccc(F)c2)sc1C(=O)N[C@H]1CCCNC1 [AZD7762] (partner 0.2 µM)
In short: (§1)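 Each reported value is a median over duplicate plates. It expresses relative viability: treated-well nuclei count divided by vehicle-well nuclei count. Lung cancer cell lines in 1536-well plates were dosed by pin tool a day after seeding, alone with one drug or with a fixed anchor-drug dose plus five library-drug doses (not always all listed) in √10 steps, and nuclei were counted after 5 days.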

Nelarabine + Dasatinib = compound: COc1nc(N)nc2c1ncn2[C@@H]1O[C@H](CO)[C@@H](O)[C@@H]1O [Nelarabine] + Cc1nc(Nc2ncc(C(=O)Nc3c(C)cccc3Cl)s2)cc(N2CCN(CCO)CC2)n1 [Dasatinib] (partner 0.075 µM)
In short: as §1

Nelarabine + Navitoclax = compound: COc1nc(N)nc2c1ncn2[C@@H]1O[C@H](CO)[C@@H](O)[C@@H]1O [Nelarabine] + CC1(C)CCC(c2ccc(Cl)cc2)=C(CN2CCN(c3ccc(C(=O)NS(=O)(=O)c4ccc(N[C@H](CCN5CCOCC5)CSc5ccccc5)c(S(=O)(=O)C(F)(F)F)c4)cc3)CC2)C1 [Navitoclax] (partner 0.5 µM)
In short: as §1

Nelarabine + Luminespib = compound: COc1nc(N)nc2c1ncn2[C@@H]1O[C@H](CO)[C@@H](O)[C@@H]1O [Nelarabine] + CCNC(=O)c1noc(-c2cc(C(C)C)c(O)cc2O)c1-c1ccc(CN2CCOCC2)cc1 [Luminespib] (partner 0.01 µM)
In short: as §1

Cell Line	relative viability (Nelarabine + AZD7762; first compound 0.01 µM)	relative viability (Nelarabine + AZD7762; first compound 0.03162 µM)	relative viability (Nelarabine + AZD7762; first compound 0.1 µM)	relative viability (Nelarabine + AZD7762; first compound 0.3162 µM)	relative viability (Nelarabine + AZD7762; first compound 1 µM)	relative viability (Nelarabine + Dasatinib; first compound 0.01 µM)	relative viability (Nelarabine + Dasatinib; first compound 0.03162 µM)	relative viability (Nelarabine + Dasatinib; first compound 0.1 µM)	relative viability (Nelarabine + Dasatinib; first compound 0.3162 µM)	relative viability (Nelarabine + Dasatinib; first compound 1 µM)	relative viability (Nelarabine + Navitoclax; first compound 0.01 µM)	relative viability (Nelarabine + Navitoclax; first compound 0.03162 µM)	relative viability (Nelarabine + Navitoclax; first compound 0.1 µM)	relative viability (Nelarabine + Navitoclax; first compound 0.3162 µM)	relative viability (Nelarabine + Navitoclax; first compound 1 µM)	relative viability (Nelarabine + Luminespib; first compound 0.01 µM)	relative viability (Nelarabine + Luminespib; first compound 0.03162 µM)	relative viability (Nelarabine + Luminespib; first compound 0.1 µM)	relative viability (Nelarabine + Luminespib; first compound 0.3162 µM)	relative viability (Nelarabine + Luminespib; first compound 1 µM)
NCI-H2347	0.915	0.658	0.718	0.506	0.769	0.328	0.306	0.252	0.289	0.308	0.955	0.799	0.782	0.782	0.939	0.463	0.743	0.621	0.48	0.478
NCI-H3122	1.24	0.769	–	0.998	0.969	1.08	0.661	–	0.81	0.948	1.04	0.668	–	1.04	1.05	0.0966	0.11	–	0.12	0.115
HCC-15	1.47	1.15	0.967	1.17	1.19	0.568	0.554	0.523	0.639	0.67	0.794	0.633	0.686	0.724	0.705	0.304	0.158	0.349	0.295	0.409
HCC-78	0.708	0.673	–	0.764	0.564	0.384	0.358	–	0.459	0.37	0.96	0.925	–	0.955	0.901	–	–	–	–	–
A549	–	–	–	–	–	–	–	–	–	–	1.56	1.29	1.24	1.17	1.18	–	–	–	–	–
PC-3 [JPC-3]	0.9	0.764	0.761	0.957	0.792	1.03	1.01	0.938	1.04	0.97	1.04	0.732	0.748	0.913	0.926	0.651	0.429	0.697	0.703	0.601
NCI-H1395	0.386	0.419	0.388	0.406	0.39	0.418	0.39	0.413	0.408	0.408	1.18	1.16	1.28	1.19	1.17	0.666	0.691	0.773	0.707	0.987
SK-MES-1	–	–	–	–	–	0.385	0.263	0.172	0.324	0.301	1.36	1.55	1.13	1.09	1.29	0.954	0.622	0.748	0.847	0.797
CAL-12T	0.721	0.642	0.685	0.58	0.561	0.426	0.484	0.16	0.51	0.482	1.37	1.11	1.31	1.41	1.14	0.32	0.315	0.367	0.699	0.394
LCLC-97TM1	0.273	–	0.351	0.281	0.215	1.03	0.506	0.779	0.95	0.806	0.428	0.202	0.458	0.478	0.351	0.912	0.688	0.856	0.713	0.78
NCI-H1703	0.17	0.0897	0.132	0.131	0.104	–	–	–	–	–	1.28	0.936	1.24	1.18	1.18	–	–	–	–	–
EBC-1	–	–	–	–	–	–	–	–	–	–	0.403	0.261	0.375	0.432	0.381	–	–	–	–	–
ABC-1	–	0.839	0.766	0.845	0.78	0.705	0.462	0.507	0.548	0.545	–	–	–	–	–	0.71	0.705	0.535	0.309	0.859
NCI-H358	0.605	0.395	0.386	0.501	0.586	0.17	0.144	0.148	0.145	0.154	–	–	–	–	–	0.409	–	0.28	0.308	0.309
NCI-H520	–	–	–	–	–	0.245	0.22	0.2	0.214	0.207	1.32	0.999	1.28	1.18	1.37	0.252	0.249	0.184	0.27	0.218
NCI-H2023	–	–	–	–	–	0.825	0.59	0.382	0.62	0.66	1.26	1.17	1.03	1.07	1.01	1.07	0.596	0.905	0.834	0.7
NCI-H2228	–	–	–	–	–	0.725	0.481	–	0.629	0.559	1.3	1.11	–	1.33	0.722	0.182	0.156	–	0.161	0.151
